In publication PMC11822212, “High-throughput screening identifies Aurora kinase B as a critical therapeutic target for Merkel cell carcinoma” (Nature Communications, 2025):
Read-outs that look alike come from different tables or passages of the source.

Columns and labels:
MCC13 cells (VN-MCC) = assay: qHTS cell viability (CellTiter-Glo, 72 h; primary and follow-up small molecule screen); format: cell-based, human
MCC26 cells (VN-MCC) = assay: as above; format: cell-based, human
UISO cells (VN-MCC) = assay: as above; format: cell-based, human; details: UISO
WAGA cells (VP-MCC) = assay: as above; format: cell-based, human; details: WAGA
MKL-1 cells (VP-MCC) = assay: as above; format: cell-based, human
MKL-2 cells (VP-MCC) = assay: as above; format: cell-based, human
[1] = qHTS cell viability (CellTiter-Glo, 72 h; primary screen), control cell line; format: cell-based, human; details: human, HACAT, read-out: Percent viability
[2] = as above; format: cell-based, human; details: human, HEK293T, read-out: Percent viability
[3] = as above; format: cell-based, mouse; details: mouse, read-out: Percent viability
[4] = as above; format: cell-based; details: human, read-out: Percent viability
[5] = system: VP-MCC cell lines (WAGA, MKL-1, MKL-2); assay: qHTS cell viability, VP-MCC cell lines as a group (mean AUC, VP.MCC.avg); format: cell-based, human; details: small molecule screen

For `COCCn1c2c([n+](Cc3cnccn3)c1C)C(=O)c1ccccc1C2=O` [sepantronium bromide, reference compound], the Percent viability (MCC13 cells (VN-MCC); MCC-13, Log (M) -4.33646) was 8.9%, the Percent viability (MCC13 cells (VN-MCC); MCC-13, Log (M) -4.81358) was 6.8% and the Percent viability (MCC13 cells (VN-MCC); MCC-13, Log (M) -5.2907) was 19.3%. It also gave a Percent viability (MCC13 cells (VN-MCC); MCC-13, Log (M) -5.76782) of 19.0%, a Percent viability (MCC13 cells (VN-MCC); MCC-13, Log (M) -6.24494) of 57.5% and a Percent viability (MCC13 cells (VN-MCC); MCC-13, Log (M) -6.72207) of 89.4%. For the same compound, the Percent viability (MCC13 cells (VN-MCC); MCC-13, Log (M) -7.19919) was 92.8%, the Percent viability (MCC13 cells (VN-MCC); MCC-13, Log (M) -7.67631) was 105.1% and the Percent viability (MCC13 cells (VN-MCC); MCC-13, Log (M) -8.15343) was 92.1%. It also gave a Percent viability (MCC13 cells (VN-MCC); MCC-13, Log (M) -8.63055) of 110.1%, a Percent viability (MCC13 cells (VN-MCC); MCC-13, Log (M) -9.10767) of 104.4% and a Percent viability (MCC26 cells (VN-MCC); MCC-26, Log (M) -4.33646) of 12.7%. For the same compound, the Percent viability (MCC26 cells (VN-MCC); MCC-26, Log (M) -4.81358) was 14.1%, the Percent viability (MCC26 cells (VN-MCC); MCC-26, Log (M) -5.2907) was 15.5% and the Percent viability (MCC26 cells (VN-MCC); MCC-26, Log (M) -5.76782) was 13.0%. For the same compound, the Percent viability (MCC26 cells (VN-MCC); MCC-26, Log (M) -6.24494) was 32.6%, the Percent viability (MCC26 cells (VN-MCC); MCC-26, Log (M) -6.72207) was 74.3% and the Percent viability (MCC26 cells (VN-MCC); MCC-26, Log (M) -7.19919) was 94.8%. For the same compound, the Percent viability (MCC26 cells (VN-MCC); MCC-26, Log (M) -7.67631) was 100.8%, the Percent viability (MCC26 cells (VN-MCC); MCC-26, Log (M) -8.15343) was 100.6% and the Percent viability (MCC26 cells (VN-MCC); MCC-26, Log (M) -8.63055) was 101.9%. The Percent viability (MCC26 cells (VN-MCC); MCC-26, Log (M) -9.10767) was 102.7%, the Percent viability (UISO cells (VN-MCC); Log (M) -4.33646) was 1.7% and the Percent viability (UISO cells (VN-MCC); Log (M) -4.81358) was -3.1%. For the same compound, the Percent viability (UISO cells (VN-MCC); Log (M) -5.76782) was 0.3%, the Percent viability (UISO cells (VN-MCC); Log (M) -6.24494) was -7.3% and the Percent viability (UISO cells (VN-MCC); Log (M) -6.72207) was -3.8%. It also gave a Percent viability (UISO cells (VN-MCC); Log (M) -7.19919) of 3.4%, a Percent viability (UISO cells (VN-MCC); Log (M) -7.67631) of 44.8% and a Percent viability (UISO cells (VN-MCC); Log (M) -8.15343) of 99.6%. For the same compound, the Percent viability (UISO cells (VN-MCC); Log (M) -8.63055) was 102.4%, the Percent viability (UISO cells (VN-MCC); Log (M) -9.10767) was 104.0% and the Percent viability (WAGA cells (VP-MCC); Log (M) -4.33646) was 2.2%. The Percent viability (WAGA cells (VP-MCC); Log (M) -4.81358) was 2.7%, the Percent viability (WAGA cells (VP-MCC); Log (M) -5.2907) was 3.2% and the Percent viability (WAGA cells (VP-MCC); Log (M) -5.76782) was 3.6%. The Percent viability (WAGA cells (VP-MCC); Log (M) -6.24494) was 3.4%, the Percent viability (WAGA cells (VP-MCC); Log (M) -6.72207) was 4.1% and the Percent viability (WAGA cells (VP-MCC); Log (M) -7.19919) was 5.7%. It also gave a Percent viability (WAGA cells (VP-MCC); Log (M) -7.67631) of 15.6%, a Percent viability (WAGA cells (VP-MCC); Log (M) -8.15343) of 103.1% and a Percent viability (WAGA cells (VP-MCC); Log (M) -8.63055) of 106.2%. For the same compound, the Percent viability (WAGA cells (VP-MCC); Log (M) -9.10767) was 107.0%, the Percent viability (MKL-1 cells (VP-MCC); MKL1, Log (M) -4.33646) was 4.1% and the Percent viability (MKL-1 cells (VP-MCC); MKL1, Log (M) -4.81358) was 5.1%. For the same compound, the Percent viability (MKL-1 cells (VP-MCC); MKL1, Log (M) -5.2907) was 6.0%, the Percent viability (MKL-1 cells (VP-MCC); MKL1, Log (M) -5.76782) was 6.5% and the Percent viability (MKL-1 cells (VP-MCC); MKL1, Log (M) -6.24494) was 8.2%. It also gave a Percent viability (MKL-1 cells (VP-MCC); MKL1, Log (M) -6.72207) of 7.5%, a Percent viability (MKL-1 cells (VP-MCC); MKL1, Log (M) -7.19919) of 7.7% and a Percent viability (MKL-1 cells (VP-MCC); MKL1, Log (M) -7.67631) of 8.0%. The Percent viability (MKL-1 cells (VP-MCC); MKL1, Log (M) -8.15343) was 17.1%, the Percent viability (MKL-1 cells (VP-MCC); MKL1, Log (M) -8.63055) was 55.6% and the Percent viability (MKL-1 cells (VP-MCC); MKL1, Log (M) -9.10767) was 97.8%. The Percent viability (MKL-2 cells (VP-MCC); MKL2, Log (M) -4.33646) was 5.0%, the Percent viability (MKL-2 cells (VP-MCC); MKL2, Log (M) -4.81358) was 6.0% and the Percent viability (MKL-2 cells (VP-MCC); MKL2, Log (M) -5.2907) was 6.6%. The Percent viability (MKL-2 cells (VP-MCC); MKL2, Log (M) -5.76782) was 7.9%, the Percent viability (MKL-2 cells (VP-MCC); MKL2, Log (M) -6.24494) was 7.7% and the Percent viability (MKL-2 cells (VP-MCC); MKL2, Log (M) -6.72207) was 7.4%. For the same compound, the Percent viability (MKL-2 cells (VP-MCC); MKL2, Log (M) -7.19919) was 9.2%, the Percent viability (MKL-2 cells (VP-MCC); MKL2, Log (M) -7.67631) was 27.9% and the Percent viability (MKL-2 cells (VP-MCC); MKL2, Log (M) -8.15343) was 100.0%. For the same compound, the Percent viability (MKL-2 cells (VP-MCC); MKL2, Log (M) -8.63055) was 100.0%, the Percent viability (MKL-2 cells (VP-MCC); MKL2, Log (M) -9.10767) was 102.5% and the viability at 72 h, 15.4 µM ([1]; HACAT cells (control cell line), Log (M) -4.81358) was 21.2%. For the same compound, the viability at 72 h, 5.12 µM ([1]; HACAT cells (control cell line), Log (M) -5.2907) was 18.9%, the viability at 72 h, 1.71 µM ([1]; HACAT cells (control cell line), Log (M) -5.76782) was 48.7% and the viability at 72 h, 0.569 µM ([1]; HACAT cells (control cell line), Log (M) -6.24494) was 44.2%. It also gave a viability at 72 h, 190 nM ([1]; HACAT cells (control cell line), Log (M) -6.72207) of 35.1%, a viability at 72 h, 63.2 nM ([1]; HACAT cells (control cell line), Log (M) -7.19919) of 66.6% and a viability at 72 h, 46.1 µM ([1]; HACAT cells, Log (M) -4.33646) of 21.2%. For the same compound, the viability at 72 h, 21.1 nM ([1]; HACAT cells, Log (M) -7.67631) was 100%, the viability at 72 h, 7.02 nM ([1]; HACAT cells, Log (M) -8.15343) was 98.2% and the viability at 72 h, 2.34 nM ([1]; HACAT cells, Log (M) -8.63055) was 88.9%. The viability at 72 h, 0.78 nM ([1]; HACAT cells, Log (M) -9.10767) was 104%, the viability at 72 h, 15.4 µM ([2]; HEK293T cells (control cell line), Log (M) -4.81358) was 1% and the viability at 72 h, 5.12 µM ([2]; HEK293T cells (control cell line), Log (M) -5.2907) was -4.1%. The viability at 72 h, 1.71 µM ([2]; HEK293T cells (control cell line), Log (M) -5.76782) was -3.3%, the viability at 72 h, 63.2 nM ([2]; HEK293T cells (control cell line), Log (M) -7.19919) was -1.7% and the viability at 72 h, 46.1 µM ([2]; HEK293T cells, Log (M) -4.33646) was -1.2%. It also gave a viability at 72 h, 21.1 nM ([2]; HEK293T cells, Log (M) -7.67631) of 23.3%, a viability at 72 h, 7.02 nM ([2]; HEK293T cells, Log (M) -8.15343) of 104% and a viability at 72 h, 2.34 nM ([2]; HEK293T cells, Log (M) -8.63055) of 100%. It also gave a viability at 72 h, 0.78 nM ([2]; HEK293T cells, Log (M) -9.10767) of 100%, a viability at 72 h, 15.4 µM ([3]; NIH-3T3 cells (control cell line), 3T3, Log (M) -4.81358) of 62.5% and a viability at 72 h, 5.12 µM ([3]; NIH-3T3 cells (control cell line), 3T3, Log (M) -5.2907) of 69.8%. The viability at 72 h, 1.71 µM ([3]; NIH-3T3 cells (control cell line), 3T3, Log (M) -5.76782) was 96.1%, the viability at 72 h, 0.569 µM ([3]; NIH-3T3 cells (control cell line), 3T3, Log (M) -6.24494) was 104% and the viability at 72 h, 190 nM ([3]; NIH-3T3 cells (control cell line), 3T3, Log (M) -6.72207) was 100%. The viability at 72 h, 63.2 nM ([3]; NIH-3T3 cells (control cell line), 3T3, Log (M) -7.19919) was 100%, the viability at 72 h, 21.1 nM ([3]; NIH-3T3 cells (control cell line), 3T3, Log (M) -7.67631) was 104% and the viability at 72 h, 46.1 µM ([3]; NIH-3T3 cells, 3T3, Log (M) -4.33646) was 20.8%. For the same compound, the viability at 72 h, 7.02 nM ([3]; NIH-3T3 cells, 3T3, Log (M) -8.15343) was 103%, the viability at 72 h, 2.34 nM ([3]; NIH-3T3 cells, 3T3, Log (M) -8.63055) was 100% and the viability at 72 h, 0.78 nM ([3]; NIH-3T3 cells, 3T3, Log (M) -9.10767) was 100%. The viability at 72 h, 46.1 µM ([4]; CRL-7250 cells (control cell line), CRL-7250, Log (M) -4.33646) was -4.6%, the viability at 72 h, 15.4 µM ([4]; CRL-7250 cells (control cell line), CRL-7250, Log (M) -4.81358) was 10.1% and the viability at 72 h, 5.12 µM ([4]; CRL-7250 cells (control cell line), CRL-7250, Log (M) -5.2907) was -5.4%. It also gave a viability at 72 h, 1.71 µM ([4]; CRL-7250 cells (control cell line), CRL-7250, Log (M) -5.76782) of -4.8%, a viability at 72 h, 569 nM ([4]; CRL-7250 cells (control cell line), CRL-7250, Log (M) -6.24494) of -8.6% and a viability at 72 h, 190 nM ([4]; CRL-7250 cells (control cell line), CRL-7250, Log (M) -6.72207) of 39.2%. The viability at 72 h, 63.2 nM ([4]; CRL-7250 cells (control cell line), CRL-7250, Log (M) -7.19919) was 65.6%, the viability at 72 h, 21.1 nM ([4]; CRL-7250 cells, CRL-7250, Log (M) -7.67631) was 101% and the viability at 72 h, 2.34 nM ([4]; CRL-7250 cells, CRL-7250, Log (M) -8.63055) was 100%. The “viability of VP-MCC (in words)” value [5] was “potent compound for inhibiting the viability of VP-MCC”.
